Results from patent publication US9023789B2, “Amylin analogs and pharmaceutical compositions thereof” (Novo Nordisk A/S, priority 2012, dated 2015).
Numbered stars: 1 amine (or outer) side, 2 acyl side, 3 side chain; on linkers, the order of the positions; unused ones are H or OH. Bridge positions count the residues as written; N and C are the ends. Side chains are listed from the residue outwards. Peptide text beside a SMILES is read from it. * marks the point of attachment. C20 diacid = O=C(O)CCCCCCCCCCCCCCCCCCC(=O)*; γGlu = O=C(O)[C@H](CCC(=O)[*:2])N[*:1]; AEEA = NCCOCCOCC(=O)O

How the values were obtained:
[1] = biological target: T1, human amylin 3(a) receptor (human calcitonin receptor + RAMP-3) in BHK570 cells (Homo sapiens, UniProt O60896+P30988); assay: ASSAY (II)a functional assay, human amylin receptor (CRE luciferase); format: cell-based; conditions: for EC50: human amylin receptor functional potency, assay (II), read-out: hAmylin-R funct. EC50
T1 construct: expressed in transfected cells
In short: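 BHK CRE-luc cells, calcitonin (a) receptor ± RAMP-3 (amylin 3(a)); overnight seeding, 37° C/5% CO2. 3 h ligand exposure, DMEM/10% FBS/10 mM Hepes pH 7.4. LucLite 30 min RT; luminescence (SPC).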

[2] = biological target: T2, human amylin receptor (membranes from Amylin 3(a)/CRE-luc cells) (Homo sapiens, UniProt O60896+P30988); assay: ASSAY (V) binding to the human amylin receptor (SPA, 125I-rat amylin); conditions: for IC50: Table 4, read-out: hAmylin-R bind IC50;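 as to all read-outs here: competition binding of cell membranes (35 ng/µL) mixed with SPA beads in 384-well plates at 40 µL total volume, read by scintillation counting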
T2 construct: expressed in transfected cells
T2 sequence (P30988 25-474): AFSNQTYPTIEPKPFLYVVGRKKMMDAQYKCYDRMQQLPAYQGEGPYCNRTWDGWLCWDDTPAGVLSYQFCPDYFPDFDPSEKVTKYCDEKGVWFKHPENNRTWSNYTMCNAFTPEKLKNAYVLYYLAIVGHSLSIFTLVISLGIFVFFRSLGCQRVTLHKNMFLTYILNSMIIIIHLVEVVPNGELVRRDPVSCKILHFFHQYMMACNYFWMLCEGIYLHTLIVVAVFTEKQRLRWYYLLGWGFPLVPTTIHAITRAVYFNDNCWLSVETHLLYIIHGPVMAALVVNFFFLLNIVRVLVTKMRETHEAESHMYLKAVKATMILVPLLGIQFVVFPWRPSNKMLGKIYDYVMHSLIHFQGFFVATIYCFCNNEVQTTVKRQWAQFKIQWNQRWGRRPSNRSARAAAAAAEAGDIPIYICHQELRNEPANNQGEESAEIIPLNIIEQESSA
T2 sequence (O60896 24-148 partner): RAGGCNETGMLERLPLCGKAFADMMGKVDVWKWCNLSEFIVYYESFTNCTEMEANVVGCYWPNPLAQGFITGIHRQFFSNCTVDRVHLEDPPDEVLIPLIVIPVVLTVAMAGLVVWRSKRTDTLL

[3] = biological target: T3, rat amylin receptor (rat calcitonin receptor + rat RAMP 3) (Rattus norvegicus, UniProt P32214+Q9JJ73); assay: ASSAY (VI) binding to the rat amylin receptor; conditions: for IC50: binding to rat amylin receptor, read-out: rAmylin-R bind IC50
T3 construct: expressed in transfected cells; host or cells: BHK tk'ts 13 (transient, FuGENE 6), membranes
T3 sequence (P32214 25-479 isoform P32214-2 limits assumed): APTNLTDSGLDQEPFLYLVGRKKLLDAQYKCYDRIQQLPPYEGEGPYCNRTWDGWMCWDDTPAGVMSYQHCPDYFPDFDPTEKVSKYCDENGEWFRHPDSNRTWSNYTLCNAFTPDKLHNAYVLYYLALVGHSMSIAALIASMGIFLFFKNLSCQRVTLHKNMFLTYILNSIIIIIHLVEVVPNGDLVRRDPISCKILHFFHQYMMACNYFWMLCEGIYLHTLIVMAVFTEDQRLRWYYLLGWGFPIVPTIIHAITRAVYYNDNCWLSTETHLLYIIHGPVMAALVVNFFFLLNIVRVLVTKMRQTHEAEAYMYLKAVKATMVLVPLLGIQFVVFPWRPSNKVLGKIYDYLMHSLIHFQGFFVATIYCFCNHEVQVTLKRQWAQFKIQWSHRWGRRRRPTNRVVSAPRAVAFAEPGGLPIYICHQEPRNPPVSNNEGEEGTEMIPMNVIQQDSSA
T3 sequence (Q9JJ73 23-147 partner): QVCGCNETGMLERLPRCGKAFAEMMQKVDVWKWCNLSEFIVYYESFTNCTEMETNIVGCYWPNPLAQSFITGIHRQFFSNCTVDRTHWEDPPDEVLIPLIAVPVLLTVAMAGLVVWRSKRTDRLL
In short: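 This assay measured binding to the rat amylin receptor. BHK tk′ts 13 cells were transiently transfected with the rat calcitonin receptor using FuGENE® 6 (Roche), following the manufacturer's recommendations. About 48 hours after transfection, the cells were harvested and membranes were prepared from them for the binding determination.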

[4] = hCTR funct. EC50 divided by hAmylin-R funct. EC50
[5] = hCTR funct. EC50 over hAmylin-R funct. EC50
[6] = human functional selectivity: hCTR funct. EC50 / hAmylin-R funct. EC50
[7] = Table 5, selectivity, hCTR bind IC50 / hAmylin-R bind IC50
[8] = Table 5a, selectivity, hCTR bind IC50 / hAmylin-R bind IC50
[9] = Table 5b, selectivity, hCTR bind IC50 / hAmylin-R bind IC50
[10] = Table 7, human binding selectivity, included for comparison
[11] = Table 7a (preferred compounds), human binding selectivity, included for comparison
[12] = ratio of human calcitonin receptor binding IC50 to human amylin receptor binding IC50
[13] = Table 7, rat binding selectivity, rCTR IC50 / rAmylin-R IC50
[14] = Table 7a (preferred compounds), rat binding selectivity, rCTR IC50 / rAmylin-R IC50
[15] = ratio of rCTR bind IC50 to rAmylin-R bind IC50
[16] = Table 5c, selectivity, hCTR bind IC50 / hAmylin-R bind IC50

Ratio hCT/hAmylin funct. [1, 4]	Ratio hCT/hAmylin funct. [1, 5]	EC50 [1]	Ratio hCT/hAmylin funct. [1, 6]	IC50 [2]	Ratio hCT/hAmylin binding [2, 7]	Ratio hCT/hAmylin binding [2, 8]	Ratio hCT/hAmylin binding [2, 9]	Ratio hCT/hAmylin binding [2, 10]	Ratio hCT/hAmylin binding [2, 11]	Ratio hCT/hAmylin binding [2, 12]	IC50 ([3]; Table 7)	Ratio rCT/rAmylin binding [3, 13]	Ratio rCT/rAmylin binding [3, 14]	Ratio rCT/rAmylin binding [3, 15]	Ratio hCT/hAmylin binding [2, 16]	Structure (SMILES)
24.0	24.0	0.198 nM	24.0	0.275 nM	17.7	17.7	17.7	17.7	17.7	17.7	0.369 nM	53.3	53.3	53.3	–	CC[C@H](C)[C@H](NC(=O)[C@H](C)NC(=O)CNC(=O)[C@H](Cc1ccccc1)NC(=O)[C@H](CC(N)=O)NC(=O)[C@@H]1CCCN1C(=O)[C@H](CO)NC(=O)[C@H](CO)NC(=O)[C@H](Cc1c[nH]cn1)NC(=O)[C@H](CCCNC(=N)N)NC(=O)[C@H](CC(C)C)NC(=O)[C@H](Cc1ccccc1)NC(=O)[C@H](CC(N)=O)NC(=O)[C@H](C)NC(=O)[C@H](CC(C)C)NC(=O)[C@H](CCCNC(=N)N)NC(=O)[C@H](CCC(N)=O)NC(=O)[C@@H](NC(=O)[C@H](C)NC(=O)[C@@H]1CSSC[C@H](NC(=O)[C@H](CCCNC(=N)N)NC(=O)[C@@H](N)CCCCNC(=O)CC[C@H](NC(=O)CCCCCCCCCCCCCCCCCCC(=O)O)C(=O)O)C(=O)N[C@@H](CC(N)=O)C(=O)N[C@@H]([C@@H](C)O)C(=O)N[C@@H](C)C(=O)N[C@@H]([C@@H](C)O)C(=O)N1)[C@@H](C)O)C(=O)N1CCC[C@H]1C(=O)N[C@@H](CO)C(=O)N[C@@H](CO)C(=O)N[C@H](C(=O)N[C@@H](CC(N)=O)C(=O)N[C@H](C(=O)NCC(=O)N[C@@H](CO)C(=O)N[C@@H](Cc1c[nH]cn1)C(=O)N[C@H](C(=O)N[C@@H](Cc1ccc(O)cc1)C(N)=O)[C@@H](C)O)C(C)C)[C@@H](C)O [Example 44] (H-K([γGlu-C20 diacid])RCNTATCATQRLANFLRHSSPNFGAIPSSTNVGSHTY-NH2; disulfide 3-8)
7.2	–	–	7.2	–	42.2	42.2	42.2	42.2	42.2	42.2	0.246 nM	74.1	74.1	74.1	42.2	CC[C@H](C)[C@H](NC(=O)[C@H](C)NC(=O)CNC(=O)[C@H](Cc1ccccc1)NC(=O)[C@H](CC(N)=O)NC(=O)[C@@H]1CCCN1C(=O)[C@H](CO)NC(=O)[C@H](CO)NC(=O)[C@H](Cc1c[nH]cn1)NC(=O)[C@H](CCCNC(=N)N)NC(=O)[C@H](CC(C)C)NC(=O)[C@H](Cc1ccccc1)NC(=O)[C@H](Cc1c[nH]cn1)NC(=O)[C@H](C)NC(=O)[C@H](CC(C)C)NC(=O)[C@H](CCCNC(=N)N)NC(=O)[C@H](CCC(N)=O)NC(=O)[C@@H](NC(=O)[C@H](C)NC(=O)[C@@H]1CSSC[C@H](NC(=O)[C@@H](N)CCCCNC(=O)COCCOCCNC(=O)CCCCCCCCCCCCCCCCCCC(=O)O)C(=O)N[C@@H](CC(N)=O)C(=O)N[C@@H]([C@@H](C)O)C(=O)N[C@@H](C)C(=O)N[C@@H]([C@@H](C)O)C(=O)N1)[C@@H](C)O)C(=O)N1CCC[C@H]1C(=O)N[C@@H](CO)C(=O)N[C@@H](CO)C(=O)N[C@H](C(=O)N[C@@H](CC(N)=O)C(=O)N[C@H](C(=O)NCC(=O)N[C@@H](CO)C(=O)N[C@@H](CC(N)=O)C(=O)N[C@H](C(=O)N[C@@H](Cc1ccc(O)cc1)C(N)=O)[C@@H](C)O)C(C)C)[C@@H](C)O [Example 90]
44.9	44.9	0.106 nM	44.9	0.172 nM	246.6	246.6	246.6	246.6	246.6	246.6	0.851 nM	259.3	259.3	259.3	246.6	CC[C@H](C)[C@H](NC(=O)[C@H](C)NC(=O)CNC(=O)[C@H](Cc1ccccc1)NC(=O)[C@H](CC(N)=O)NC(=O)[C@@H]1CCCN1C(=O)[C@H](CO)NC(=O)[C@H](CO)NC(=O)[C@H](Cc1c[nH]cn1)NC(=O)[C@H](CCCNC(=N)N)NC(=O)[C@H](CC(C)C)NC(=O)[C@H](Cc1ccccc1)NC(=O)[C@H](C)NC(=O)[C@H](C)NC(=O)[C@H](CC(C)C)NC(=O)[C@H](CCCNC(=N)N)NC(=O)[C@H](CCC(N)=O)NC(=O)[C@@H](NC(=O)[C@H](C)NC(=O)[C@@H]1CSSC[C@H](NC(=O)[C@@H](N)CCCCNC(=O)COCCOCCNC(=O)CC[C@H](NC(=O)CCCCCCCCCCCCCCCCCCC(=O)O)C(=O)O)C(=O)N[C@@H](CC(N)=O)C(=O)N[C@@H]([C@@H](C)O)C(=O)N[C@@H](C)C(=O)N[C@@H]([C@@H](C)O)C(=O)N1)[C@@H](C)O)C(=O)N1CCC[C@H]1C(=O)N[C@@H](CO)C(=O)N[C@@H](CO)C(=O)N[C@H](C(=O)N1CCC[C@H]1C(=O)N[C@H](C(=O)NCC(=O)N[C@@H](CO)C(=O)N[C@@H](CC(N)=O)C(=O)N[C@H](C(=O)N[C@@H](Cc1ccc(O)cc1)C(N)=O)[C@@H](C)O)C(C)C)[C@@H](C)O [Example 72] (H-K([AEEA-γGlu-C20 diacid])CNTATCATQRLAAFLRHSSPNFGAIPSSTPVGSNTY-NH2; disulfide 2-7 (inferred); N-terminus assumed)
6.8	6.8	–	6.8	–	15.7	15.7	15.7	15.7	15.7	15.7	1.86 nM	32.4	32.4	32.4	–	CC[C@H](C)[C@H](NC(=O)[C@H](C)NC(=O)CNC(=O)[C@H](Cc1ccccc1)NC(=O)[C@H](CC(N)=O)NC(=O)[C@@H]1CCCN1C(=O)[C@H](CO)NC(=O)[C@H](CO)NC(=O)[C@H](Cc1c[nH]cn1)NC(=O)[C@H](CCCNC(=N)N)NC(=O)[C@H](CC(C)C)NC(=O)[C@H](Cc1ccccc1)NC(=O)[C@H](CCC(=O)O)NC(=O)[C@H](C)NC(=O)[C@H](CC(C)C)NC(=O)[C@H](CCCNC(=N)N)NC(=O)[C@H](CCC(N)=O)NC(=O)[C@@H](NC(=O)[C@H](C)NC(=O)[C@@H]1CSSC[C@H](NC(=O)[C@H](CCCCN)NC(=O)CC[C@H](NC(=O)CCCCCCCCCCCCCCCCCCC(=O)O)C(=O)O)C(=O)N[C@@H](CC(N)=O)C(=O)N[C@@H]([C@@H](C)O)C(=O)N[C@@H](C)C(=O)N[C@@H]([C@@H](C)O)C(=O)N1)[C@@H](C)O)C(=O)N1CCC[C@H]1C(=O)N[C@@H](CO)C(=O)N[C@@H](CO)C(=O)N[C@H](C(=O)N[C@@H](CC(N)=O)C(=O)N[C@H](C(=O)NCC(=O)N[C@@H](CCCCN)C(=O)N[C@@H](CC(N)=O)C(=O)N[C@H](C(=O)N[C@@H](Cc1ccc(O)cc1)C(N)=O)[C@@H](C)O)C(C)C)[C@@H](C)O [Example 36] ({C20 diacid-γGlu}-KCNTATCATQRLAEFLRHSSPNFGAIPSSTNVGKNTY-NH2; disulfide 2-7 (inferred))
